Results: PubChem BioAssay (NCI)
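All cell lines were grown in 96-well plates and treated with compound for 48 hours. TGI: total growth inhibition.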

What was measured:
Assay in all cases: NCI anticancer screen, dose series, 48 h
[1] = system: SK-MEL-28 melanoma
[2] = system: UACC-257 melanoma
[3] = system: SNB-19 CNS
[4] = system: SF-295 CNS
[5] = system: COLO 205 colon
[6] = system: A498 renal
[7] = system: HS 578T breast
[8] = system: OVCAR-4 ovarian
[9] = system: T-47D breast
[10] = system: SK-OV-3 ovarian
[11] = system: HCT-15 colon
[12] = system: HCC-2998 colon
[13] = system: SK-MEL-2 melanoma
[14] = system: HOP-92 NSCLC
[15] = system: NCI-H23 lung
[16] = system: IGROV1 ovarian
[17] = system: OVCAR-3 ovarian
[18] = system: SN12C renal
[19] = system: SW-620 colon
[20] = system: MCF7 breast
[21] = system: SK-MEL-5 melanoma
[22] = system: UO-31 renal
[23] = system: MDA-MB-231 breast
[24] = system: RPMI-8226 leukemia
[25] = system: OVCAR-8 ovarian
[26] = system: BT-549 breast
[27] = system: NCI-H460 lung
[28] = system: PC-3 prostate
[29] = system: HOP-62 NSCLC
[30] = system: DU-145 prostate
[31] = system: OVCAR-5 ovarian
[32] = system: CAKI-1 renal
[33] = system: UACC-62 melanoma
[34] = system: NCI-H226 lung
[35] = system: HT29 colon
[36] = system: NCI/ADR-RES ovarian
[37] = system: M14 melanoma
[38] = system: KM12 colon
[39] = system: SF-268 CNS
[40] = system: SF-539 CNS
[41] = system: CCRF-CEM leukemia
[42] = system: U251 CNS
[43] = system: NCI-H522 lung
[44] = system: MOLT-4 leukemia
[45] = system: HCT-116 colon
[46] = system: A549 NSCLC
[47] = system: HL-60(TB) leukemia
[48] = system: 786-0 renal
[49] = system: EKVX NSCLC
[50] = system: LOX IMVI melanoma
[51] = system: ACHN renal
[52] = system: SNB-75 CNS
[53] = system: TK-10 renal
[54] = system: SR leukemia
[55] = system: MALME-3M melanoma
[56] = system: RXF 393 renal
[57] = system: MDA-MB-435

Measured: TGI

COc1ccc2c(=O)c(-c3cc4c(cc3OC)OCO4)coc2c1
not listed: [55] | [56] | [57]
> 100 µM: all other assays above

CCOc1ccc(NC(=O)/C(=N\N)C(C(=O)OC)c2nc3ccc(Cl)cc3[nH]c2=O)cc1 (configuration not stated)
not listed: [3] | [5] | [30] | [44]
> 100 µM: all other assays above
